We go through 59 compounds from the Kinase Knowledgebase extract (Sharma et al. 2016).

SMILES strings stand for the structures.

The target of the assay is EGFR (UniProt P00533).
EGFR, sequence (P00533 whole entry, looked up): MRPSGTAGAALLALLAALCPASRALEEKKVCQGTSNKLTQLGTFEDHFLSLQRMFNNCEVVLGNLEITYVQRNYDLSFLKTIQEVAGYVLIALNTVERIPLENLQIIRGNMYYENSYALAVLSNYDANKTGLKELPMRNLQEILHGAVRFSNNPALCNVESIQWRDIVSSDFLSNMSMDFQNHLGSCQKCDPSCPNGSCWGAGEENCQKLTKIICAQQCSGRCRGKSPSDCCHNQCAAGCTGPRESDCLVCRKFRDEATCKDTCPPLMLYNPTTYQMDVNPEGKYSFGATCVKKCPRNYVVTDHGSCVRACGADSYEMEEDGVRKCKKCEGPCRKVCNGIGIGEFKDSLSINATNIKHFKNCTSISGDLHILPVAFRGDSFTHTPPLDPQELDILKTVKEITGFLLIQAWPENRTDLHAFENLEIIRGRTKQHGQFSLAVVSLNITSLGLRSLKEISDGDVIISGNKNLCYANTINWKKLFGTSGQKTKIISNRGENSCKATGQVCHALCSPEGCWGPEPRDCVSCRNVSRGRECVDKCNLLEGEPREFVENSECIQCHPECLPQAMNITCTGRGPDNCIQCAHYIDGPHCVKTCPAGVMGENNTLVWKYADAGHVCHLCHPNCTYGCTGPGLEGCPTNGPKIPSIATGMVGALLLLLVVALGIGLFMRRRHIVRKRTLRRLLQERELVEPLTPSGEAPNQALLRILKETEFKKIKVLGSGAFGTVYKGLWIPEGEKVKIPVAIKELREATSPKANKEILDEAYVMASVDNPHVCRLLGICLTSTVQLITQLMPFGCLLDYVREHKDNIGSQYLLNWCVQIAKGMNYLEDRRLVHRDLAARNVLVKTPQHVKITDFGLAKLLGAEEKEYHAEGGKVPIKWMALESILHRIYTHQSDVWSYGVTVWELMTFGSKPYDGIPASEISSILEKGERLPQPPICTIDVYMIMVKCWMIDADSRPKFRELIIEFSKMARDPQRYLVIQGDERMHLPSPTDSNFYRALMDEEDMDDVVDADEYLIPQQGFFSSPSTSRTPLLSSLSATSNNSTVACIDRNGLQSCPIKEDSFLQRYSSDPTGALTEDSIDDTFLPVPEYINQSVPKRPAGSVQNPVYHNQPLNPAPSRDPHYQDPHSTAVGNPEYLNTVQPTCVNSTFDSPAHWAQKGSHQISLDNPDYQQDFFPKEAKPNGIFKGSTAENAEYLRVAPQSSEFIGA
By IC50 is commonly meant the point on the concentration scale where inhibition reaches its midpoint. Higher therefore signals weaker potency. For the compound `COc1cc2c(Nc3ccc(Cl)c(Cl)c3Cl)ncnc2cc1OCC1CN(C)CCO1` (centres undefined), the IC50 was less than 0.05 µM. The figure for `COc1cc2c(Nc3ccc(Cl)c(Cl)c3)ncnc2cc1OCC1CN(S(=O)(=O)CCCCl)CCO1` (centres undefined) is less than 0.05 µM; for `COc1cc2c(Nc3ccc(Cl)c(Cl)c3)ncnc2cc1OCC1CN(CC2CCCCC2)CCCO1` (centres undefined) it is less than 0.05 µM; for `COc1cc2c(Nc3ccc(Cl)c(Cl)c3)ncnc2cc1OCC1CN(C)CC(C)(C)O1` (centres undefined) it is less than 0.05 µM. The compound `COc1cc2c(Nc3ccc(Cl)c(Cl)c3)ncnc2cc1OCC1CC2CCC(C1)N2C` (centres undefined) gave an IC50 of less than 0.05 µM.

`COc1cc2c(Nc3ccc(Br)c(Cl)c3)ncnc2cc1O[C@H]1CO[C@@H]2[C@H]1OC[C@@H]2N1CCCC1` gave an IC50 of less than 0.05 µM. Consider `COc1cc2c(Nc3ccc(Cl)c(Cl)c3)ncnc2cc1OCC1CN(C2CCCC2)CCO1` (centres undefined), for which the half-inhibitory concentration (IC50) is less than 0.05 µM. In turn, `COc1cc(Nc2ncnc3cc(O[C@@H]4CO[C@@H]5[C@H]4OC[C@H]5F)c(OC)cc23)c(OC)cc1Cl` had a half-inhibitory concentration (IC50) of less than 0.05 µM.

The compound `COc1cc2c(Nc3ccc(Cl)c(Cl)c3)ncnc2cc1OCc1cscn1` gave an IC50 of less than 0.05 µM. For `COc1cc2c(Nc3ccc(Cl)c(Cl)c3F)ncnc2cc1OCC1CN(C)C(C)(C)CO1` (centres undefined) the value was less than 0.05 µM; for `COc1cc2c(Nc3ccc(Cl)c(Cl)c3)ncnc2cc1OC1CCCC1`, less than 0.05 µM.

Compound `COc1cc2c(Nc3ccc(F)c(F)c3F)ncnc2cc1O[C@@H]1CO[C@@H]2[C@H]1OC[C@H]2F` registered a half-inhibitory concentration (IC50) of less than 0.05 µM. `COc1cc2c(Nc3ccc(Cl)c(Cl)c3)ncnc2cc1OCCC1OCCCO1` gave an IC50 of less than 0.05 µM. For the compound `COc1cc2c(Nc3ccc(Cl)c(Cl)c3)ncnc2cc1O[C@H]1CO[C@H]2[C@@H]1OC[C@@H]2OC`, the half-maximal inhibitory concentration (IC50) was less than 0.05 µM.

`COc1cc2c(Nc3ccc(Cl)c(Cl)c3)ncnc2cc1OCc1nc(CN2CCN(C)CC2)cs1` returned a concentration for half-maximal inhibition (IC50) of less than 0.05 µM. Take `COc1cc2c(Nc3ccc(Cl)cc3Cl)ncnc2cc1OCC1CN(C)CCO1` (centres undefined): the IC50 was less than 0.05 µM. For `CCO[C@H]1CO[C@H]2[C@@H]1OC[C@@H]2Oc1cc2ncnc(Nc3ccc(Br)c(Cl)c3)c2cc1OC` the value was less than 0.05 µM. Turning to `COc1cc2c(Nc3cc(C(F)(F)F)ccc3Cl)ncnc2cc1O[C@@H]1CO[C@@H]2[C@H]1OC[C@H]2F`, the IC50 is less than 0.05 µM. The compound `CCOC(=O)C(C)N1CCOC(COc2cc3ncnc(Nc4ccc(Cl)c(Cl)c4)c3cc2OC)C1` (centres undefined) displayed an IC50 of less than 0.05 µM. Turning to `CCN1CCC(c2nc(COc3cc4ncnc(Nc5ccc(Cl)c(Cl)c5)c4cc3OC)cs2)CC1`, the IC50 was less than 0.05 µM. `COc1cc2c(Nc3ccc(Cl)c(Cl)c3)ncnc2cc1OCC1CN(CC2CC2)CCO1` (centres undefined) gave an IC50 of less than 0.05 µM. In the case of `COc1cc2c(Nc3ccc(Cl)c(Cl)c3)ncnc2cc1OCC1CN(C)C(C)(C)CO1` (centres undefined), the IC50 is less than 0.05 µM. `CCN1CCN(CC)C(COc2cc3ncnc(Nc4ccc(Cl)c(Cl)c4)c3cc2OC)C1` (centres undefined) registered a concentration for half-maximal inhibition (IC50) of less than 0.05 µM. As to `COc1cc2c(Nc3ccc(Cl)c(Cl)c3)ncnc2cc1OCc1csc(N(C)C)n1`, the IC50 was less than 0.05 µM. `COc1cc2c(Nc3ccc(Cl)c(Cl)c3)ncnc2cc1OCc1csc(C2CCCCN2C)n1` (centres undefined) came in with an IC50 of less than 0.05 µM. The figure for `COc1cc2c(Nc3ccc(Br)c(Cl)c3F)ncnc2cc1OCC1CN(C)C(C)(C)CO1` (centres undefined) is less than 0.05 µM; for `COc1cc2c(Nc3cc(F)ccc3F)ncnc2cc1O[C@@H]1CO[C@@H]2[C@H]1OC[C@H]2F` it is less than 0.05 µM; for `CCCC(C)C(=O)N1CCOC(COc2cc3ncnc(Nc4ccc(Cl)c(Cl)c4)c3cc2OC)C1` (centres undefined) it is less than 0.05 µM. Turning to `COc1cc2c(Nc3ccc(Br)c(Cl)c3)ncnc2cc1OC1CCN(C)C1` (centres undefined), the IC50 was less than 0.05 µM. `COc1cc2c(Nc3cc(Cl)ccc3F)ncnc2cc1OCC1CN(C)CCO1` (centres undefined) registered an IC50 of less than 0.05 µM. As to `COCCNC(=NC#N)N1CCOC(COc2cc3ncnc(Nc4ccc(Cl)c(Cl)c4)c3cc2OC)C1` (centres undefined), the IC50 is less than 0.05 µM. In the case of `COc1cc2c(Nc3ccc(Cl)c(Cl)c3)ncnc2cc1OCC1CN(C(C)=N)CCCO1` (centres undefined), the half-inhibitory concentration (IC50) is less than 0.05 µM. In the case of `CCN(CC)c1ccc(-c2csc(COc3cc4ncnc(Nc5ccc(Cl)c(Cl)c5)c4cc3OC)n2)cc1`, the half-maximal inhibitory concentration (IC50) was less than 0.05 µM.

In the case of `CCC(=O)N1CCOC(COc2cc3ncnc(Nc4ccc(Cl)c(Cl)c4)c3cc2OC)C1` (centres undefined), the IC50 is less than 0.05 µM. As to `CC#CCN1CCOC(COc2cc3ncnc(Nc4ccc(Cl)c(Cl)c4)c3cc2OC)C1` (centres undefined), the 50% inhibitory concentration (IC50) is less than 0.05 µM. The figure for `CCN1CCCC1c1nc(COc2cc3ncnc(Nc4ccc(Cl)c(Cl)c4)c3cc2OC)no1` (centres undefined) is less than 0.05 µM.

For the compound `COc1cc2c(Nc3ccc(Cl)c(C(F)(F)F)c3)ncnc2cc1O[C@@H]1CO[C@@H]2[C@H]1OC[C@H]2F`, the IC50 was less than 0.05 µM.

In turn, `COc1cc2c(Nc3cc(F)c(F)cc3F)ncnc2cc1O[C@@H]1CO[C@@H]2[C@H]1OC[C@H]2F` showed an IC50 of less than 0.05 µM. As for `COc1cc2c(Nc3ccc(F)c(Cl)c3F)ncnc2cc1OCC1CN(C)C(C)(C)CO1` (centres undefined), the concentration for half-maximal inhibition (IC50) is less than 0.05 µM. `CCCCCC(=O)N1CCOC(COc2cc3ncnc(Nc4ccc(Cl)c(Cl)c4)c3cc2OC)C1` (centres undefined): the IC50 was less than 0.05 µM.

For the compound `COc1cc2c(Nc3cc(Cl)c(Cl)c(Cl)c3)ncnc2cc1O[C@@H]1CO[C@@H]2[C@H]1OC[C@H]2F`, the concentration for half-maximal inhibition (IC50) is less than 0.05 µM. As for `CCS(=O)(=O)N1CCOC(COc2cc3ncnc(Nc4ccc(Cl)c(Cl)c4)c3cc2OC)C1` (centres undefined), the IC50 was less than 0.05 µM.

`COc1cc2c(Nc3ccc(Cl)c(Cl)c3)ncnc2cc1OC[C@@H]1CN2CCC[C@@H]2CO1`: the half-maximal inhibitory concentration (IC50) is less than 0.05 µM. `COc1cc2c(Nc3ccc(Cl)c(Cl)c3)ncnc2cc1OCc1nc(-c2ccc(N3CCCC3)cc2)cs1` gave an IC50 of less than 0.05 µM. The figure for `COc1cc2c(Nc3cc(C(F)(F)F)ccc3Br)ncnc2cc1O[C@@H]1CO[C@@H]2[C@H]1OC[C@H]2F` is less than 0.05 µM; for `COc1cc2c(Nc3ccc(Cl)c(Cl)c3)ncnc2cc1OCC1COCCN1C` (centres undefined) it is less than 0.05 µM; for `COc1cc2c(Nc3ccc(Cl)c(Cl)c3)ncnc2cc1OCc1nc(CN2CCCN(C)CC2)cs1` it is less than 0.05 µM.

For the compound `COc1cc2c(Nc3ccc(N4CCN(C)CC4)c(Cl)c3Cl)ncnc2cc1O[C@H]1CO[C@@H]2[C@H]1OC[C@@H]2F`, the half-maximal inhibitory concentration (IC50) was less than 0.05 µM. With `COc1cc2c(Nc3ccc(Cl)c(Cl)c3)ncnc2cc1OCc1nc([C@@H]2CCCN2)no1`, the IC50 is less than 0.05 µM. For `COc1cc2c(Nc3ccc(Cl)c(Cl)c3)ncnc2cc1OCC1CNCC(C)(C)O1` (centres undefined), the IC50 is less than 0.05 µM. `CCC(=O)CN1CCOC(COc2cc3ncnc(Nc4ccc(Cl)c(Cl)c4)c3cc2OC)C1` (centres undefined) displayed an IC50 of less than 0.05 µM. For `CCOc1cc2c(Nc3ccc(Cl)c(Cl)c3)ncnc2cc1OCC1CN(C)CCO1` (centres undefined), the concentration for half-maximal inhibition (IC50) is less than 0.05 µM. Take `COc1cc2c(Nc3ccc(Cl)c(Cl)c3)ncnc2cc1OCc1noc(-c2ccccc2)n1`: the IC50 was less than 0.05 µM. The compound `CCN1CCc2nc(COc3cc4ncnc(Nc5ccc(Cl)c(Cl)c5)c4cc3OC)sc2C1` showed a half-inhibitory concentration (IC50) of less than 0.05 µM. For `COc1cc2c(Nc3ccc(Cl)c(Cl)c3)ncnc2cc1OCc1nc(CN2CCOCC2)cs1` the value was less than 0.05 µM; for `COc1cc2c(Nc3ccc(Br)c(Cl)c3)ncnc2cc1O[C@H]1CO[C@@H]2[C@H]1OC[C@@H]2S(C)(=O)=O`, less than 0.05 µM; for `COc1cc2c(Nc3ccc(Cl)c(Cl)c3F)ncnc2cc1O[C@@H]1CO[C@@H]2[C@H]1OC[C@H]2F`, less than 0.05 µM. On to `COc1cc2c(Nc3ccc(Cl)c(Cl)c3)ncnc2cc1OCc1csc2ccc(Cl)cc12`, for which the IC50 was in the range of 0.05 to 1 µM. For `COc1cc2c(Nc3ccc(Br)c(Cl)c3)ncnc2cc1O[C@H]1CO[C@H]2[C@@H]1OCC21OCCO1` the value was less than 0.05 µM.
